The molecules below were run against T1, CD73 (Homo sapiens, UniProt P21589) (assay: Biochemical assay of CD73 inhibition (Malachite Green)). Conditions: CD73 0.3208 nM, AMP 15 μM, Tris-HCl pH 7.4, Malachite Green absorbance readout; read-out: CD73_Biochem.
T1 sequence (P21589 27-549): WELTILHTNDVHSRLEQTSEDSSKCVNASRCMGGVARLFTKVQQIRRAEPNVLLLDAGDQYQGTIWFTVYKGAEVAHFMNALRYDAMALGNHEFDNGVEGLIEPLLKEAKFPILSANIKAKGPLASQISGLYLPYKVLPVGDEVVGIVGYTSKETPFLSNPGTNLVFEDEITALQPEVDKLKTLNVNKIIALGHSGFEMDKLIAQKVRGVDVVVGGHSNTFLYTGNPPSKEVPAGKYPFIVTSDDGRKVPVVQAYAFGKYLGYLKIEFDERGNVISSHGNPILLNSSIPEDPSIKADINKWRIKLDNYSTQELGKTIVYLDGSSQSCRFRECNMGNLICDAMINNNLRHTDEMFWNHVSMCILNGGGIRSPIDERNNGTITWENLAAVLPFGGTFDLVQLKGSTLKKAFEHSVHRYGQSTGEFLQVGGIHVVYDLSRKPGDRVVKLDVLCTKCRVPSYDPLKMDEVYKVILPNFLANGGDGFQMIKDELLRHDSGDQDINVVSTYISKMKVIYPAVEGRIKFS
Description: Example A1: Biochemical Assay
Assay Reaction Conditions
• Assay Volume: 70 μl • Reaction Volume: 50 μl • CD73: 0.3208 nM • AMP:15 μM • Assay Buffer: 2 5 mM Tris-HCL, pH 7.4, 0.01% Brij-35, 0.01% BSA, 5 mM MgCl2 Assay Procedure:
Made dose titration of testing compounds in assay buffer, 10 points 1/2 log titrations in duplicates starting at 100 μM.
Added 25 µl of CD73 to each well for a final concentration of […].
Incubated at RT for 15 min.
Added 25 µl of AMP to each well for a final concentration of 15 μM.
Incubated at RT for 10 min.
Added […] of Malachite Green Reagent A, incubate at RT for 10 min.
Added […] of Malachite Green Reagent B, incubate at RT for 45 min.
Read the Absorbance on Envision plate reader using excitation filter: Cy5 […].
The ability of the compounds disclosed herein to inhibit CD73 activity was quantified and the respective IC50 values were determined. Table 2 provides the biochemical IC50 values of compounds disclosed herein.

IC50 [nM]	SMILES
≤ 10	O=P(O)(O)[C@@](CO)(Cc1nn[nH]n1)OC[C@H]1O[C@@H](n2ncc3c(NC4CCCC4)nc(C#CC4CC4)nc32)[C@H](O)[C@@H]1O [Example 50, ((R)-2-(((2R,3S,4R,5R)-5-(4-(cyclopentylamino)-6-(cyclopropylethynyl)-1H-pyrazolo[3,4-d]pyrimidin-1-yl)-3,4-dihydroxytetrahydrofuran-2-yl)methoxy)-1-hydroxy-3-(2H-tetrazol-5-yl)propan-2-yl)phosphonic acid]
≤ 10	O=c1[nH]c(COCC(CO)(OC[C@H]2O[C@@H](n3ncc4c(NC5CCCC5)nc(Cl)nc43)[C@H](O)[C@@H]2O)P(=O)(O)O)no1 (stereo partly drawn) [Example 51, (2-(((2R,3S,4R,5R)-5-(6-chloro-4-(cyclopentylamino)-1H-pyrazolo[3,4-d]pyrimidin-1-yl)-3,4-dihydroxytetrahydrofuran-2-yl)methoxy)-1-hydroxy-3-((5-oxo-4,5-dihydro-1,2,4-oxadiazol-3-yl)methoxy)propan-2-yl)phosphonic acid]
≤ 10	O=P(O)(O)[C@](CO)(COCc1nn[nH]n1)OC[C@H]1O[C@@H](n2ncc3c(NC4CCC4)nc(Cl)nc32)[C@H](O)[C@@H]1O [Example 52, ((R)-1-((1H-tetrazol-5-yl)methoxy)-2-(((2R,3S,4R,5R)-5-(6-chloro-4-(cyclobutylamino)-1H-pyrazolo[3,4-d]pyrimidin-1-yl)-3,4-dihydroxytetrahydrofuran-2-yl)methoxy)-3-hydroxypropan-2-yl)phosphonic acid]
≤ 10	COCC(COCc1nn[nH]n1)(OC[C@H]1O[C@@H](n2ncc3c(NC4CCCC4)nc(C#CC4CC4)nc32)[C@H](O)[C@@H]1O)P(=O)(O)O (stereo partly drawn) [Example 53, (1-((2H-tetrazol-5-yl)methoxy)-2-(((2R,3S,4R,5R)-5-(4-(cyclopentylamino)-6-(cyclopropylethynyl)-1H-pyrazolo[3,4-d]pyrimidin-1-yl)-3,4-dihydroxytetrahydrofuran-2-yl)methoxy)-3-methoxypropan-2-yl)phosphonic acid]
≤ 10	O=P(O)(O)[C@@](CO)(COCc1nn[nH]n1)OC[C@H]1O[C@@H](n2ncc3c(NCC4CC4)nc(Cl)nc32)[C@H](O)[C@@H]1O [Example 54, ((S)-1-((2H-tetrazol-5-yl)methoxy)-2-(((2R,3S,4R,5R)-5-(6-chloro-4-((cyclopropylmethyl)amino)-1H-pyrazolo[3,4-d]pyrimidin-1-yl)-3,4-dihydroxytetrahydrofuran-2-yl)methoxy)-3-hydroxypropan-2-yl)phosphonic acid]
≤ 10	O=P(O)(O)[C@@](CO)(COCc1nn[nH]n1)OC[C@H]1O[C@@H](n2ncc3c(NC4CCC4)nc(Cl)nc32)[C@H](O)[C@@H]1O [Example 55, ((S)-1-((2H-tetrazol-5-yl)methoxy)-2-(((2R,3S,4R,5R)-5-(6-chloro-4-(cyclobutylamino)-1H-pyrazolo[3,4-d]pyrimidin-1-yl)-3,4-dihydroxytetrahydrofuran-2-yl)methoxy)-3-hydroxypropan-2-yl)phosphonic acid]
≤ 10	COCC(COCc1nn[nH]n1)(OC[C@H]1O[C@@H](n2ncc3c(N[C@@H]4CCc5ccccc54)nc(Cl)nc32)[C@H](O)[C@@H]1O)P(=O)(O)O (stereo partly drawn) [Example 56, (1-((2H-tetrazol-5-yl)methoxy)-2-(((2R,3S,4R,5R)-5-(6-chloro-4-(((R)-2,3-dihydro-1H-inden-1-yl)amino)-1H-pyrazolo[3,4-d]pyrimidin-1-yl)-3,4-dihydroxytetrahydrofuran-2-yl)methoxy)-3-methoxypropan-2-yl)phosphonic acid]
10 to 100	CC(CS(C)(=O)=O)(OC[C@H]1O[C@@H](n2ncc3c(NC4CCCC4)nc(Cl)nc32)[C@H](O)[C@@H]1O)P(=O)(O)O (stereo partly drawn) [Example 57, (2-(((2R,3S,4R,5R)-5-(6-chloro-4-(cyclopentylamino)-1H-pyrazolo[3,4-d]pyrimidin-1-yl)-3,4-dihydroxytetrahydrofuran-2-yl)methoxy)-1-(methylsulfonyl)propan-2-yl)phosphonic acid]

Further lines, the molecule ahead of its results:

SMILES	IC50 [nM]
COC[C@](OC[C@H]1O[C@@H](n2ncc3c(NC4CCCC4)nc(Cl)nc32)[C@H](O)[C@@H]1O)(C(=O)NO)P(=O)(O)O [Example 36, ((R)-2-(((2R,3S,4R,5R)-5-(6-chloro-4-(cyclopentylamino)-1H-pyrazolo[3,4-d]pyrimidin-1-yl)-3,4-dihydroxytetrahydrofuran-2-yl)methoxy)-1-(hydroxyamino)-3-methoxy-1-oxopropan-2-yl)phosphonic acid]	≤ 10
COC[C@@](OC[C@H]1O[C@@H](n2ncc3c(NC4CCCC4)nc(Cl)nc32)[C@H](O)[C@@H]1O)(C(=O)NO)P(=O)(O)O [Example 37, ((S)-2-(((2R,3S,4R,5R)-5-(6-chloro-4-(cyclopentylamino)-1H-pyrazolo[3,4-d]pyrimidin-1-yl)-3,4-dihydroxytetrahydrofuran-2-yl)methoxy)-1-(hydroxyamino)-3-methoxy-1-oxopropan-2-yl)phosphonic acid]	≤ 10
COC[C@](COCc1nn[nH]n1)(OC[C@H]1O[C@@H](n2ncc3c(NC4CCCC4)nc(Cl)nc32)[C@H](O)[C@@H]1O)P(=O)(O)O [Example 38, ((S)-1-((2H-tetrazol-5-yl)methoxy)-2-(((2R,3S,4R,5R)-5-(6-chloro-4-(cyclopentamino)-1H-pyrazolo[3,4-d]pyrimidin-1-yl)-3,4-dihydroxytetrahydrofuran-2-yl)methoxy)-3-methoxypropan-2-yl)phosphonic acid]	≤ 10
COC[C@@](COCc1nn[nH]n1)(OC[C@H]1O[C@@H](n2ncc3c(NC4CCCC4)nc(Cl)nc32)[C@H](O)[C@@H]1O)P(=O)(O)O [Example 39, ((R)-1-((2H-tetrazol-5-yl)methoxy)-2-(((2R,3S,4R,5R)-5-(6-chloro-4-(cyclopentylamino)-1H-pyrazolo[3,4-d]pyrimidin-1-yl)-3,4-dihydroxytetrahydrofuran-2-yl)methoxy)-3-methoxypropan-2-yl)phosphonic acid]	≤ 10
COCCOCC(COCc1nnn[nH]1)(OC[C@H]1O[C@@H](n2ncc3c(NC4CCCC4)nc(Cl)nc32)[C@H](O)[C@@H]1O)P(=O)(O)O (stereo partly drawn) [Example 40, (1-((1H-tetrazol-5-yl)methoxy)-2-(((2R,3S,4R,5R)-5-(6-chloro-4-(cyclopentylamino)-1H-pyrazolo[3,4-d]pyrimidin-1-yl)-3,4-dihydroxytetrahydrofuran-2-yl)methoxy)-3-(2-methoxyethoxy)propan-2-yl)phosphonic acid]	≤ 10
CC(Cc1nn[nH]n1)(OC[C@H]1O[C@@H](n2ncc3c(NC4CCCC4)nc(Cl)nc32)[C@H](O)[C@@H]1O)P(=O)(O)O (stereo partly drawn) [Example 43, (2-(((2R,3S,4R,5R)-5-(6-chloro-4-(cyclopentylamino)-1H-pyrazolo[3,4-d]pyrimidin-1-yl)-3,4-dihydroxytetrahydrofuran-2-yl)methoxy)-1-(2H-tetrazol-5-yl)propan-2-yl)phosphonic acid]	≤ 10
COCC(OC[C@H]1O[C@@H](n2ncc3c(NC4CCCC4)nc(Cl)nc32)[C@H](O)[C@@H]1O)(C(=O)O)P(=O)(O)O (stereo partly drawn) [Example 46, 2-(((2R,3S,4R,5R)-5-(6-chloro-4-(cyclopentylamino)-1H-pyrazolo[3,4-d]pyrimidin-1-yl)-3,4-dihydroxytetrahydrofuran-2-yl)methoxy)-3-methoxy-2-phosphonopropanoic acid]	≤ 10
O=P(O)(O)[C@](CO)(Cc1nn[nH]n1)OC[C@H]1O[C@@H](n2ncc3c(N[C@@H]4CCc5ccccc54)nc(Cl)nc32)[C@H](O)[C@@H]1O [Example 47]	10 to 100
O=P(O)(O)[C@@](CO)(Cc1nn[nH]n1)OC[C@H]1O[C@@H](n2ncc3c(N[C@@H]4CCc5ccccc54)nc(Cl)nc32)[C@H](O)[C@@H]1O [Example 48, ((R)-2-(((2R,3S,4R,5R)-5-(6-chloro-4-(((R)-2,3-dihydro-1H-inden-1-yl)amino)-1H-pyrazolo[3,4-d]pyrimidin-1-yl)-3,4-dihydroxytetrahydrofuran-2-yl)methoxy)-1-hydroxy-3-(2H-tetrazol-5-yl)propan-2-yl)phosphonic acid]	≤ 10
O=P(O)(O)C(CO)(OC[C@H]1O[C@@H](n2ncc3c(NC4CCCC4)nc(Cl)nc32)[C@H](O)[C@@H]1O)c1nn[nH]n1 (stereo partly drawn) [Example 49, (1-(((2R,3S,4R,5R)-5-(6-chloro-4-(cyclopentylamino)-1H-pyrazolo[3,4-d]pyrimidin-1-yl)-3,4-dihydroxytetrahydrofuran-2-yl)methoxy)-2-hydroxy-1-(2H-tetrazol-5-yl)ethyl)phosphonic acid]	10 to 100

— US11130778B2, “CD73 inhibitors” (ORIC Pharmaceuticals, Inc., priority 2019, dated 2021)
